Consider 16 compounds from patent US9345703B2, “Kappa opioid receptor effectors and uses thereof” (University of Kansas, priority 2011, dated 2016).

A value given as a limit tells only on which side of the number the result lay.

Holding throughout (format): cell-based
In assay [1] the target is DOR (Homo sapiens, UniProt P41143). Briefly: High content imaging β-arrestin translocation assay, DOR antagonist (DOR HCS). As to conditions: antagonist; average; read-out: Potency, Antitarget DOR HCS. An excerpt:
(§1) In this campaign, two assay platforms were employed to evaluate KOR activity and selectivity: the KOR1 DISCOVERX β-Arrestin […] assay and an imaging based β-arrestin translocation assay for confirmatory and selectivity assays. The KOR1 DISCOVERX β-Arrestin […] assay is a commercial platform for direct measurement of GPCR (G protein-coupled receptor) activation by detection of β-Arrestin binding to the KOR. […] In cells that stably express these fusion proteins, ligand stimulation results in the recruitment of β-Arrestin by the GPCR. This interaction encourages the complementation of the two β-galactosidase fragments resulting in the formation of a functional enzyme that converts substrate in the assay medium to a detectable signal. The imaging based high-content β-arrestin translocation assay is based upon the redistribution of β-Arrestin linked to green fluorescent protein (GFP) to the cell surface and detection (Barak, et al. (1997) J. Biol. Chem. 272:27497-27500).
(§2) Initially, a portion (approximately 290,000 compounds) of the MLSMR compound collection was tested in the KOR1 DISCOVERX β-arrestin primary kappa opioid (KOP) agonist and antagonist screens (PUBCHEM AID 1777 and 1778, respectively) at a single concentration point (10 μM). […] These compounds were concurrently tested in a β-galactosidase counterscreen assay (PUBCHEM AID 1966) to assess the possibility that these compounds might inhibit the reporting enzyme. […] The KOR:DOR:MOR selectivity of the compounds was determined using the analogous β-arrestin translocation assays for the DOR (PUBCHEM AID 2370 and 2357, for agonists and antagonist, respectively) and the MOR (PUBCHEM AID 2352 and 2420, for agonists and antagonists, respectively).

Assay [2] deals with T1, MOR (Homo sapiens, UniProt P35372). Briefly: High content imaging β-arrestin translocation assay, MOR antagonist (MOR HCS). The following applies: antagonist; average; read-out: Potency, Antitarget MOR HCS.
Source text: as §1, §2

Assay [3] concerns the target T2, KOR (Homo sapiens, UniProt P41145). Briefly: High content imaging β-arrestin translocation assay, KOR antagonist (KOR HCS).
Source text: as §1, §2

Assay [4] deals with T2, KOR. Briefly: KOR1 DISCOVERX β-Arrestin […] assay, antagonist mode (KOR DRX).
Source text: as §1, §2

For assay [5], the target named is T2, KOR. Briefly: DISCOVERX β-arrestin […] assay, agonist mode (KOR DRx). As to conditions: for EC50: agonist, n = 3, read-out: Average Potency KOR DRx; for Emax (%): at highest concentration tested, compared to dynorphin A (Emax=100%).
Source text: as §1, with “signal.” for “signal. The imaging based high-content β-arrestin translocation assay is based upon the redistribution of β-Arrestin linked to green fluorescent protein (GFP) to the cell surface and detection (Barak, et al. (1997) J. Biol. Chem. 272:27497-27500).”

Assay [6] has as its target T2, KOR. Briefly: High content imaging based β-arrestin translocation assay, KOR agonist (KOR HCS). The following applies: n = 2, read-out: Average Potency KOR HCS.
Source text: as §1, §2

Assay [7] addresses T1, MOR. Briefly: High content imaging based β-arrestin translocation assay, MOR agonist (MOR HCS). The following applies: n = 2, read-out: Average Potency MOR HCS.
Source text: as §1, §2

The mark [8] stands for this setting: antagonist, average, read-out: Potency, Target KOR HCS.
The mark [9] stands for this setting: antagonist, average, read-out: Potency, Target KOR DRX.

T2 sequence (P41145 whole entry): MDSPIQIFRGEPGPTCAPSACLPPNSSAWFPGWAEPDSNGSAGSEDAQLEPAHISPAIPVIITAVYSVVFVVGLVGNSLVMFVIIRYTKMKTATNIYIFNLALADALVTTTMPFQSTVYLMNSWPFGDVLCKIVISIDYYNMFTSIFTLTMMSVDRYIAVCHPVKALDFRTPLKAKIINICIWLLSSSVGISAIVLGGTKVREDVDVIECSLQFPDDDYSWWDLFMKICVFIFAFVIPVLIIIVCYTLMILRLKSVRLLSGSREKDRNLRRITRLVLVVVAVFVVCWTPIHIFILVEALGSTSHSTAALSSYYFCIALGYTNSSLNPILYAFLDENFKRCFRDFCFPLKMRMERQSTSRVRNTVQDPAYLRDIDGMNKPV
Chain of DOR (P41143 whole entry, the tested form may be a part): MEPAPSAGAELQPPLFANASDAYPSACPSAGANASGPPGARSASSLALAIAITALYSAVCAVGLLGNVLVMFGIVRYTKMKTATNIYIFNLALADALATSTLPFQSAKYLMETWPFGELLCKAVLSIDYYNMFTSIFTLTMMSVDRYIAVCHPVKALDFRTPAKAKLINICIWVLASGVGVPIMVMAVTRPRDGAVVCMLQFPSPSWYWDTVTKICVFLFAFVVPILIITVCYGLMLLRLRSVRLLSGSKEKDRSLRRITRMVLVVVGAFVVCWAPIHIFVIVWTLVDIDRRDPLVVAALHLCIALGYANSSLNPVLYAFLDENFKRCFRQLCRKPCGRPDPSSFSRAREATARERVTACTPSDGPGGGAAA
T1 sequence (P35372 whole entry): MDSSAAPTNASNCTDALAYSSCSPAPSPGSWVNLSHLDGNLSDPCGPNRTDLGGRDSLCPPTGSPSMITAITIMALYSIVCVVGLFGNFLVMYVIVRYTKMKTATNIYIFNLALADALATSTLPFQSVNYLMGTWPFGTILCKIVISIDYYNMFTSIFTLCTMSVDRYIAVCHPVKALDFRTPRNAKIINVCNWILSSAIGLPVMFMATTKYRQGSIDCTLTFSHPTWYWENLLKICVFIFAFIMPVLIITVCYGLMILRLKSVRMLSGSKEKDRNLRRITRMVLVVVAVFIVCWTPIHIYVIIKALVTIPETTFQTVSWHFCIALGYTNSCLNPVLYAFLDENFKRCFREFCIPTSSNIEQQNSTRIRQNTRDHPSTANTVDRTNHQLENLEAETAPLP

For `COc1ccc(N2CCN(CCCNC(=O)Cn3c(=O)c4cccn4c4ccccc43)CC2)cc1` [1{2}], the IC50 in assay [1] was > 32 µM; in assay [2], > 32 µM; in assay [3] (setting [8]) it was 15.3 µM; in assay [4] (setting [9]) it was 4.32 µM.

`COc1ccc(N2CCN(CCCNC(=O)Cn3c(=O)c4cccn4c4c(C)ccnc43)CC2)c(OC)c1` [1{4}]: the IC50 in assay [1] was > 32 µM; in assay [2] it was 30.9 µM; in assay [3] (setting [8]), 0.004 µM; in assay [4] (setting [9]), 0.19 µM.

With `Cc1ccnc2c1n1cccc1c(=O)n2CC(=O)NCCCN1CCN(c2ccc3c(c2)OCO3)CC1` [1{5}], the IC50 in assay [1] was > 32 µM; in assay [2], 17.2 µM; in assay [3] (setting [8]), 0.045 µM; in assay [4] (setting [9]) it was 0.43 µM.

In the case of `Cc1ccc(N2CCN(CCCNC(=O)Cn3c(=O)c4cccn4c4c(C)ccnc43)CC2)cc1` [1{7}], the IC50 in assay [1] is > 32 µM; in assay [2] it was > 32 µM; in assay [3] (setting [8]) it was 2.28 µM; in assay [4] (setting [9]), 0.88 µM.

In the case of `Cc1ccnc2c1n1cccc1c(=O)n2CC(=O)NCCCN1CCN(c2ccccc2)CC1` [1{8}], the IC50 is > 32 µM in assay [1], 22.5 µM in assay [2], 2.56 µM in assay [3] (setting [8]) and 4.95 µM in assay [4] (setting [9]).

On to `Cc1cccc(N2CCN(CCNC(=O)Cn3c(=O)c4cccn4c4cccnc43)CC2)c1C` [1{25}], for which the IC50 in assay [1] was > 32 µM; in assay [3], > 32 µM; in assay [4] it was > 20 µM.

`COc1ccc(N2CCN(CCNC(=O)Cn3c(=O)c4cccn4c4c(C)ccnc43)CC2)cc1` [1{26}]: the IC50 in assay [1], in assay [2] and in assay [3] was > 32 µM throughout.

Consider `O=C(Cn1c(=O)c2cccn2c2cccnc21)NCCCN1CCC(Cc2ccccc2)CC1` [Compound 1{22}], for which the results for the IC50 in assay [1], in assay [2] and in assay [4] (setting [9]) were > 32 µM, > 32 µM and 4.78 µM, respectively.

Regarding `COc1cccc(CSc2nnc(-c3ccccn3)n2Cc2cccs2)c1` [Compound 2{38}], the figures for the EC50 in assay [5], in assay [6] and in assay [7] were 8.72 µM, 12.2 µM and > 32 µM, respectively. For the same compound, in assay [5], the “Emax (%)” value is recorded as ~100%.

In the case of `Cc1c(CSc2nnc(-c3ccccn3)n2Cc2ccco2)cccc1[N+](=O)[O-]` [Compound 2{39}], the EC50 in assay [5] is 8.21 µM; in assay [6] it was 12 µM; in assay [7], > 32 µM. In addition, the “Emax (%)” value in assay [5] is reported as ~128%.

On to `Cc1c(CSc2nnc(-c3ccccn3)n2Cc2cccs2)cccc1[N+](=O)[O-]` [Compound 2{40}], for which the EC50 is 5.81 µM in assay [5], 4.2 µM in assay [6] and > 32 µM in assay [7]. Moreover, in assay [5], the “Emax (%)” value was ~105%.

Turning to `Fc1ccc(CSc2nnc(-c3ccccn3)n2Cc2ccco2)c(F)c1F` [Compound 2{43}], the EC50 in assay [5] was 7 µM; in assay [6], 5.3 µM; in assay [7] it was > 32 µM. In assay [5], the “Emax (%)” value was ~140%.

On to `Fc1ccc(CSc2nnc(-c3ccccn3)n2Cc2cccs2)c(F)c1F` [Compound 2{44}], for which the values for the EC50 in assay [5], in assay [6] and in assay [7] were 3.04 µM, 1.7 µM and > 32 µM, respectively. Besides, in assay [5], the “Emax (%)” value is ~115%.

`Fc1ccc(CSc2nnc(-c3ccccn3)n2Cc2ccco2)c(C(F)(F)F)c1` [Compound 2{45}]: the EC50 in assay [5] is 8.27 µM; in assay [6], 5.4 µM; in assay [7] it was > 32 µM. Further, in assay [5], the “Emax (%)” value was ~138%.

Take `Fc1ccc(CSc2nnc(-c3ccccn3)n2Cc2cccs2)c(C(F)(F)F)c1` [Compound 2{46}]: the EC50 was 4.46 µM in assay [5], 2.25 µM in assay [6] and > 32 µM in assay [7]. For the same compound, the “Emax (%)” value in assay [5] is reported as ~109%.

For `Clc1ccccc1CSc1nnc(-c2ccccn2)n1Cc1cccs1` [Compound 2{48}], the figures for the EC50 in assay [5], in assay [6] and in assay [7] were 10.2 µM, 4.1 µM and > 32 µM, respectively. For the same compound, the “Emax (%)” value in assay [5] is ~100%.
